In patent US4555572A, “Pyrazolo[3,4,5-kl]acridine compositions and methods for their production and use” (Warner-Lambert Company, priority 1984, dated 1985):
Structures can show the parent of a compound that is named as a salt. Where two headings read alike, the source gives them in different places.

Tests used:
[1] = tested on: lymphocytic leukemia P388; test: in vivo lymphocytic leukemia P388 test; set-up: species or system CD2 F1 mice; conditions: Mus musculus, P388, ip, 120 h
Method: Another test protocol is the in vivo lymphocytic leukemia P388 test. The animals used are either male or female CD2 F1 mice, six or seven animals per test group. The tumor transplant is by intraperitoneal injection of dilute ascitic fluid containing cells of lymphocytic leukemia P388. The test compounds are administered intraperitoneally once daily for five consecutive days at various doses following tumor inoculation. The animals are weighed and survivors are recorded on a regular basis for 30 days. A compound is designated "toxic" if, at a given dose, all animals died prior to four days after the first injection of drug. A ratio of survival time for treated (T)/control (C) animals is calculated. A criterion for efficacy is a ratio T/C times 100 greater than or equal to 125. See Cancer Chemotherapy Reports, Part 3, 3, 1 (1972) for a comprehensive discussion of the protocol.

[2] = tested on: HCT-8 cells; test: in vitro proliferating human colon adenocarcinoma (HCA) cell screen, HCT-8; type: cell-based
Method: (a) One test protocol is the in vitro proliferating human colon adenocarcinoma (HCA) cell screen. In this test, HCT-8 cells (HCA cell line received from Yale University) are trypsinized using trypsin-EDTA. A single cell suspension is achieved by passing the cells through a 26 gauge needle with a 20-cc syringe. A cell suspension is prepared using RPMI 1640+10% FCS+50 μg/ml gentamicin sulfate with a cell concentration is approximately 30,000 cells/ml. The cell suspension is dispensed in Linbro 24-well plates; 1 ml/well. The plates are incubated for approximately 48 hours at 37° C. in a 5% CO2 atmosphere. At this time test compounds are added in the appropriate concentration. Five μl of the 200 μg/ml stock solution is added to each well in a primary test. […] of the appropriate dilution is added to each well for a titration test. The plates are reincubated an additional 60 to 65 hours at 37° C. in a 5% CO 2 atmosphere. The cells are lysed using a mix of cationic surfactant, glacial acetic acid, and sodium chloride. Two ml of the lysed cell suspension from each well is added to 8 ml of diluent. The number of nuclei is determined using a Coulter counter (ZBI model), and a percent growth for each drug concentration is calculated. From this, and ID50 (molar concentration of compound that results in 50% inhibition of growth) is determined.

[3] = tested on: Branhamella catarrhalis; test: in vitro antibacterial (ABMF) microdilution susceptibility test; type: cell-based; conditions: Moraxella catarrhalis, read-out: ABMF Test M.I.C. B. cata.
Description: (§1) (d) Still another test protocol is the in vitro antibacterial (ABMF) test which is a recognized standard microdilution susceptibility procedure in Mueller-Hinton broth against gram-positive and gram-negative bacterial test organisms. The procedure is a modification of a state-of-the-art procedure reported in Manual of Clinical Microbiology, Lennette, E. H., ed., by Barry, A. L. and C. Thornsberry at pages 463-474 and by Gavan, T. L. and A. L. Barry at pages 459-462, American Society for Microbiology, Washington, 1980.
(§2) In the test, a given bacterial culture is used to inoculate individaul test wells of microdilution trays containing growth medium and test compound, the latter in a microdilution series: 1000, 333, 111, 37, 12, 4, 1.4, and 0.46 micrograms per milliliter. […] For convenience, values are reported for Escherichia coli, Branhamella catarrhalis, Alcaligenes viscolactis, Streptococcus pneumoniae, and Bacillus cereus

[4] = tested on: Escherichia coli; test: as above; type: cell-based; conditions: read-out: ABMF Test M.I.C. E. coli
Description: as §1, §2

[5] = tested on: Streptococcus pneumoniae; test: as above; type: cell-based; conditions: read-out: ABMF Test M.I.C. S. pneu.
Description: as §1, §2

[6] = tested on: Alcaligenes viscolactis; test: as above; type: cell-based; conditions: read-out: ABMF Test M.I.C. A. visc.
Description: as §1, §2

[7] = tested on: Bacillus cereus; test: as above; type: cell-based; conditions: read-out: ABMF Test M.I.C. B. cere.
Description: as §1, §2

[8] = intraperitoneally once daily for five days, read-out: P388 in vivo T/C × 100
[9] = HCT-8 cells, 60 to 65 hours, ED50, read-out: HCA ED50 Avg.
[10] = Mueller-Hinton broth, 37° C., 16-24 hours
[11] = 6.25 mg/kg, intraperitoneally once daily for five days, read-out: P388 in vivo T/C × 100
[12] = 3.12 mg/kg, intraperitoneally once daily for five days, read-out: P388 in vivo T/C × 100
[13] = 1.56 mg/kg, intraperitoneally once daily for five days, read-out: P388 in vivo T/C × 100

Row | Compound | response vs control in vivo at 12.5 mg/kg [1, 8] [%] | IC50 [2, 9] [nM] | MIC [3, 10] [µg/mL] | MIC [4, 10] [µg/mL] | MIC [5, 10] [µg/mL] | MIC [6, 10] [µg/mL] | MIC [7, 10] [µg/mL] | response vs control in vivo at 6.25 mg/kg [1, 11] [%] | further results
1 | CCN(CC)CCn1nc2c3c(c([N+](=O)[O-])ccc31)Nc1ccc(OCc3ccccc3)cc1-2 [Example 11, monomethanesulfonate] | 127 |  |  |  |  |  |  |  | response vs control in vivo at 25 mg/kg ([1]; 25 mg/kg, intraperitoneally once daily for five days, read-out: P388 in vivo T/C × 100): 141%; response vs control in vivo at 50 mg/kg ([1]; 50 mg/kg, intraperitoneally once daily for five days, read-out: P388 in vivo T/C × 100): 194%; IC50 ([2]; HCT-8 cells, 60 to 65 hours, molar concentration for 50% inhibition of growth, read-out: HCA in vitro ID50 avg.): 2300 nM
2 | CCN(CC)CCn1nc2c3c(c([N+](=O)[O-])ccc31)Nc1c(OC)cccc1-2.CS(=O)(=O)O [Example 17, N,N-Diethyl-7-methoxy-5-nitropyrazolo[3,4,5-kl]acridine-2(6H)-ethanamine, methanesulfonate (1:1)] | 106 | 510 | < 0.46 | < 0.46 | < 0.46 | < 0.46 | < 0.46 |  | 
3 | CCOc1ccc2c(c1)-c1nn(CCN(CC)CC)c3ccc([N+](=O)[O-])c(c13)N2.CS(=O)(=O)O [Example 18, N,N-Diethyl-9-ethoxy-5-nitropyrazolo[3,4,5-kl]acridine-2(6H)-ethanamine, methanesulfonate (1:1)] | 201 | 110 | 1.4 | 12.3 | < 0.46 | < 0.46 | 12.3 | 169 | response vs control in vivo at 3.13 mg/kg ([1]; 3.13 mg/kg, intraperitoneally once daily for five days, read-out: P388 in vivo T/C × 100): 135%
4 | CCCOc1ccc2c(c1)-c1nn(CCN(CC)CC)c3ccc([N+](=O)[O-])c(c13)N2.CS(=O)(=O)O [Example 19, N,N-Diethyl-5-nitro-9-propoxypyrazolo[3,4,5-kl]acridine-2(6H)-ethanamine, methanesulfonate salt (1:1)] |  | 310 | < 0.46 | 1000 | < 0.46 | < 0.46 | 12.3 | 167 | response vs control in vivo at 3.12 mg/kg [1, 12]: 137%
5 | CCCCOc1ccc2c(c1)-c1nn(CCN(CC)CC)c3ccc([N+](=O)[O-])c(c13)N2 [Example 20, 9-Butoxy-N,N-diethyl-5-nitropyrazolo[3,4,5-kl]acridine-2(6H)-ethanamine, methanesulfonate] |  | 73 |  |  |  |  |  | 160 | response vs control in vivo at 1.56 mg/kg [1, 13]: 124%; response vs control in vivo at 3.12 mg/kg [1, 12]: 125%
6 | CCN(CC)CCn1nc2c3c(c([N+](=O)[O-])ccc31)Nc1c(OC)cc(OC)cc1-2 [Example 23, N,N-Diethyl-7,9-dimethoxy-5-nitropyrazolo[3,4,5-kl]acridine-2(6H)-ethanamine, methanesulfonate, hydrate (1:1)] |  | 490 | 1.4 | 37 | < 0.46 | < 0.46 | < 0.46 |  | 
7 | CCN(CC)CCn1nc2c3c(c([N+](=O)[O-])ccc31)Nc1ccc(O[Si](C)(C)C(C)(C)C)cc1-2 [Example 26, 9-[[(1,1-Dimethylethyl)dimethylsilyl]oxy]-N,N-diethyl-5-nitropyrazolo[3,4,5-kl]acridine-2(6H)-ethanamine, methanesulfonate (salt) (1:1)] |  |  |  |  |  |  |  |  | response vs control in vivo at 1.56 mg/kg ([1]; read-out: P388 in vivo T/C × 100, 1.56 mg/kg, intraperitoneally once daily for five days): 154%; response vs control in vivo at 3.12 mg/kg ([1]; read-out: P388 in vivo T/C × 100, 3.12 mg/kg, intraperitoneally once daily for five days): 158%; response vs control in vivo at 6.25 mg/kg ([1]; read-out: P388 in vivo T/C × 100, 6.25 mg/kg, intraperitoneally once daily for five days): 211%; IC50 ([2]; HCT-8, read-out: HCA ED50 Avg.): 6.4 nM; MIC [3]: > 1000 µg/mL; MIC [4]: > 1000 µg/mL; MIC [5]: > 1000 µg/mL; MIC [6]: 37 µg/mL; MIC [7]: > 1000 µg/mL
8 | CCN(CC)CCn1nc2c3c(c([N+](=O)[O-])ccc31)Nc1ccc(OC(C)=O)cc1-2 [Example 27, 2-[2-(Diethylamino)ethyl]-2,6-dihydro-5-nitropyrazolo[3,4,5-kl]acridin-9-ol, acetate (ester), methanesulfonate (salt) (1:1)] |  | 5.3 | 0.46 | 12.3 | 1.4 | 0.46 | 4.1 | 165 | response vs control in vivo at 1.56 mg/kg [1, 13]: 158%; response vs control in vivo at 3.12 mg/kg [1, 12]: 218%
9 | CCCC(=O)Oc1ccc2c(c1)-c1nn(CCN(CC)CC)c3ccc([N+](=O)[O-])c(c13)N2 [Example 29, [2-[2-(Diethylamino)ethyl]-2,6-dihydro-5-nitropyrazolo[3,4,5-kl]acridin-9-yl]butanoic ester, methanesulfonate (salt) (1:1)] |  |  | 1.4 | 333 | < 0.46 | < 0.46 | 4.1 | 252 | 
10 | CCN(CC)CCn1nc2c3c(c([N+](=O)[O-])ccc31)Nc1ccc(C)cc1-2 [Example 34, N,N-Diethyl-9-methyl-5-nitropyrazolo[3,4,5-kl]acridine-2(6H)-ethanamine, methanesulfonate (salt) (1:1)] |  | 790 | < 0.46 | 12.3 | < 0.46 | < 0.46 | < 0.46 |  | 
11 | CC[N+]([O-])(CC)CCn1nc2c3c(c([N+](=O)[O-])ccc31)Nc1ccccc1-2 [Example 35, N,N-Diethyl-5-nitropyrazolo[3,4,5-kl]acridine-2(6H)-ethanamine, N-oxide, methanesulfonate salt (5:6), hydrate (4:3)] | 167 |  | 12.3 | 12.3 | 12.3 | 4.1 | > 1000 |  | 
12 | CCN(CC)CCn1nc2c([N+](=O)[O-])cc([N+](=O)[O-])c3c2c1-c1cc(OC)ccc1N3.CS(=O)(=O)O [Example 56, N,N-Diethyl-9-methoxy-3,5-dinitropyrazolo[3,4,5-kl]acridine-1(6H)-ethanamine, methanesulfonate] |  |  |  |  |  |  |  |  | MIC [3]: 37 µg/mL; MIC [4]: 1000 µg/mL; MIC [5]: 12.3 µg/mL; MIC [6]: < 0.46 µg/mL; MIC [7]: 333 µg/mL
